According to patent US12552747B2, “Amino acid derivative containing non-steroidal anti-inflammatory drug structure and preparation method and application thereof” (priority 2020, dated 2026):
Marks after values point to notes of the source that are not given here.

System: Liver cancer SK-hep1 cells
Experiment: In vitro antitumor activity test (MTT), SK-hep1
Format: cell-based
Conditions: Homo sapiens, 24 h
Protocol: (§1) 13 human tumor cell lines were selected and cultured in RPMI-1640 medium (Gibco company) containing 10% inactivated fetal bovine serum, 100 U/ml penicillin and 100 U/ml streptomycin, cultured at 37° C. in a 5% CO2 incubator, and passaged once every 2 days. Using the MTT method, cells in the logarithmic growth phase were digested with 0.25% trypsin, centrifuged at 1000 r/min for 5 min, 8×10^3 cells were added to each well, and seeded in a 96-well plate, and 180 μl of cell suspension was added to each well, and a blank was set at the same time. The 96-well plate inoculated with tumor cells was placed in a carbon dioxide incubator for 24 hours, and then 20 μl of the drug was added, and an equal volume of culture medium was added to the blank control well, and the drug was divided into 8 concentrations from 50 μg/L to 0.4 μg/L. Three duplicate wells were set for each drug concentration and placed in an incubator for 24 h. 10 μl of MTT solution (5 mg/ml) was added to each well, and the culture was continued for 4 h. The supernatant was aspirated and discarded, 100 μl of dimethyl sulfoxide (DMSO) solution was added to each well, placed on a micro shaker for 10 min, and the absorbance (A value) was measured at a wavelength of 492 nm in a microplate reader, and the inhibition rate of the drug on tumor cells was calculated according to the following formula.
(§2) In this test, the IC50 value of the compound on tumor cells was calculated by the Origin software according to the inhibition rate of the compound. AC-201 in the following table was the abbreviation of PL-AC-201, and so on.

Compound | IC50 [nM]
COc1ccc2cc(C(C)C(=O)NC(Cc3ccc(-c4ccccc4)cc3)C(=O)NC3CC(C)(C)NC(C)(C)C3)ccc2c1 (centres unmarked) [PL-AC-202] | 11.5

System: Lung cancer H460 cells
Experiment: In vitro antitumor activity test (MTT), H460
Format: cell-based
Conditions: Homo sapiens, NCI-H460, 24 h
Protocol: as §1, §2

Compound | IC50 [nM]
COc1ccc2cc(C(C)C(=O)NC(Cc3ccc(-c4ccccc4)cc3)C(=O)NC3CC(C)(C)NC(C)(C)C3)ccc2c1 (centres unmarked) [PL-AC-202] | 18.5

System: Breast cancer MCF-7 cells
Experiment: In vitro antitumor activity test (MTT), MCF-7
Format: cell-based
Conditions: Homo sapiens, MCF7; Breast cancer MCF-7, MTT, 24 h
Protocol: as §1, §2

Compound | IC50 [nM]
COc1ccc2cc(C(C)C(=O)NC(Cc3ccc(-c4ccccc4)cc3)C(=O)NC3CC(C)(C)NC(C)(C)C3)ccc2c1 (centres unmarked) [PL-AC-202] | 21.1

System: Pancreatic cancer Bxpc-3 cells
Experiment: In vitro antitumor activity test (MTT), Bxpc-3
Format: cell-based
Conditions: Homo sapiens; Pancreatic cancer Bxpc-3, MTT, 24 h
Protocol: as §1, §2

Compound | IC50 [nM]
COc1ccc2cc(C(C)C(=O)NC(Cc3ccc(-c4ccccc4)cc3)C(=O)NC3CC(C)(C)NC(C)(C)C3)ccc2c1 (centres unmarked) [PL-AC-202] | 35.1

System: Liver cancer HepG-2 cells
Experiment: In vitro antitumor activity test (MTT), HepG-2
Format: cell-based
Conditions: Homo sapiens, HepG2; Liver cancer HepG-2, MTT, 24 h
Protocol: as §1, §2

Compound | IC50 [nM]
COc1ccc2cc(C(C)C(=O)NC(Cc3ccc(-c4ccccc4)cc3)C(=O)NC3CC(C)(C)NC(C)(C)C3)ccc2c1 (centres unmarked) [PL-AC-202] | 15.8

System: SK-hep1 liver tumors
Experiment: Transplanted tumor in nude mice, intraperitoneal, SK-hep1
Format: in vivo, BALB/c nude mice
Conditions: SK-hep1, 5 mg/kg i.p. once every 3 days, 8 administrations
Protocol: (§3) BALB/c nude mice were used to inoculate Bel-7402, HepG-2 and SK-hep1 liver tumors according to the transplanted tumor research method under aseptic operation, and the cell density was not less than 5×10^6/ml, 0.2 ml was inoculated subcutaneously in the axilla of the right hind limb of each mouse. After the cells were inoculated, the cells were administered intraperitoneally (concentration: 5 mg/kg), once every 3 days, for a total of 8 administrations. After the 2nd day of drug withdrawal, all tumor-bearing mice were sacrificed, and their body weight, tumor weight and tumor inhibition were weighed.

Compound | Tumor inhibition rate | Tumor weight [mg]
COc1ccc2cc(C(C)C(=O)NC(Cc3ccc(-c4ccccc4)cc3)C(=O)NC3CC(C)(C)NC(C)(C)C3)ccc2c1 (centres unmarked) [PL-AC-202] | ^ΔΔ71.7** % | 317.1 ± 8.7

Same assay, conditions: SK-hep1 tumor-bearing BALB/c mice, 5 mg/kg i.p. once every 3 days, 8 administrations

Compound | Body Weight After administration [g]
COc1ccc2cc(C(C)C(=O)NC(Cc3ccc(-c4ccccc4)cc3)C(=O)NC3CC(C)(C)NC(C)(C)C3)ccc2c1 (centres unmarked) [PL-AC-202] | 24.9 ± 1.0

System: Colon cancer HT29 cells
Experiment: In vitro antitumor activity test (MTT), HT29
Format: cell-based
Conditions: Homo sapiens, HT-29, 24 h
Protocol: as §1, §2

Compound | IC50 [nM]
COc1ccc2cc(C(C)C(=O)NC(Cc3ccc(-c4ccccc4)cc3)C(=O)NC3CC(C)(C)NC(C)(C)C3)ccc2c1 (centres unmarked) [PL-AC-202] | 32.5

System: Lung cancer H1299 cells
Experiment: In vitro antitumor activity test (MTT), H1299
Format: cell-based
Conditions: Homo sapiens, NCI-H1299, 24 h
Protocol: as §1, §2

Compound | IC50 [nM]
COc1ccc2cc(C(C)C(=O)NC(Cc3ccc(-c4ccccc4)cc3)C(=O)NC3CC(C)(C)NC(C)(C)C3)ccc2c1 (centres unmarked) [PL-AC-202] | 19.8

System: Cervical cancer Hela cells
Experiment: In vitro antitumor activity test (MTT), Hela
Format: cell-based
Conditions: Homo sapiens, 24 h
Protocol: as §1, §2

Compound | IC50 [nM]
COc1ccc2cc(C(C)C(=O)NC(Cc3ccc(-c4ccccc4)cc3)C(=O)NC3CC(C)(C)NC(C)(C)C3)ccc2c1 (centres unmarked) [PL-AC-202] | 16.1

System: not listed separately
Experiment: Acute toxicity test of single administration to ICR mice
Conditions: mouse, in vivo, intravenous, single tail vein injection, observed 7 days
Protocol: ICR mice, 18-22 g, were raised in a common-grade animal room, fed with common feed, and ingested freely. The group distance and dose were determined after exploring the Dm and Dn of the compounds of the examples. Five concentrations of the compounds of the examples were formulated at the desired dose. The corresponding doses of drugs were injected into the tail vein according to body weight, and the blank control group was injected with normal saline. Immediately after administration, the performance and death of each animal were observed and recorded, and the possible toxic reaction or death of animals within 7 days after a single administration was observed and recorded.

Compound | LD50 at 7 days [mg/kg]
COc1ccc2cc(C(C)C(=O)NC(Cc3ccc(-c4ccccc4)cc3)C(=O)NC3CC(C)(C)NC(C)(C)C3)ccc2c1 (centres unmarked) [PL-AC-202] | 34.8

System: HepG-2 liver tumors
Experiment: Transplanted tumor in nude mice, intraperitoneal, HepG-2
Format: in vivo, BALB/c nude mice
Conditions: HepG-2, 5 mg/kg i.p. once every 3 days, 8 administrations
Protocol: as §3

Compound | Tumor inhibition rate | Tumor weight [mg]
COc1ccc2cc(C(C)C(=O)NC(Cc3ccc(-c4ccccc4)cc3)C(=O)NC3CC(C)(C)NC(C)(C)C3)ccc2c1 (centres unmarked) [PL-AC-202] | ^ΔΔ75.4** % | 406.2 ± 5.9

Same assay, conditions: HepG-2 tumor-bearing BALB/c mice, 5 mg/kg i.p. once every 3 days, 8 administrations

Compound | Body Weight After administration [g]
COc1ccc2cc(C(C)C(=O)NC(Cc3ccc(-c4ccccc4)cc3)C(=O)NC3CC(C)(C)NC(C)(C)C3)ccc2c1 (centres unmarked) [PL-AC-202] | 22.8 ± 0.8

System: 13 human tumor cell lines
Experiment: Average IC50 over the tumor cell lines (MTT)
Format: cell-based
Conditions: mean IC50 for each tumor, read-out: AverageIC50
Protocol: as §1, §2
The ratio of the hemolytic concentration MHC of the compound to the mean IC50 for each tumor was referred to as the therapeutic index (TI). The safety of the compound was evaluated by the therapeutic index. The higher the therapeutic index, the greater the safety range of the compound.

Compound | IC50 [nM]
COc1ccc2cc(C(C)C(=O)NC(Cc3ccc(-c4ccccc4)cc3)C(=O)NC3CC(C)(C)NC(C)(C)C3)ccc2c1 (centres unmarked) [PL-AC-202] | 24

System: human red blood cells
Experiment: Detection of hemolytic activity
Format: cell-based
Conditions: hemolytic concentration, in nM
Protocol: 2-3 ml of human blood was drawn using an anticoagulant tube, thoroughly mixed, and kept at 4° C. for later use. 2 ml of blood was aspirated and added with 2-3 ml of PBS, followed by gently pipetting and centrifugation for 5 min at 1000 rpm, which was repeated 3-4 times. After the last centrifugation, PBS was aspirated, PBS was added to 40 ml (20 times the volume), and the number of blood cells at this time was 2×10^8 cells/ml. The red blood cell suspension was added to the plate (U-shaped 96-well plate), and 70 μl/well was used as a negative well. Only PBS was added to blank wells, 140 μl/well. 2 ml of the red blood cell suspension was centrifuged, PBS was discarded, 2 ml of pure water was added, mixed well, and 140 μl/well was used as a positive well. The diluted polypeptide solutions of different concentrations were added to the plate, 70 μl/well. Incubated at 37° C., 87 rpm, shaken for 2h, centrifuged for 5 min at 3000 rpm. The OD value measured by microplate reader: After centrifugation, 90 μl of supernatant was drawn and transferred to a flat-bottom 96-well plate, and the OD value at 578 nm was measured by microplate reader. ODtest-OD negative >0.1 (the first concentration that met the conditions was MHC).

Compound | MHC [nM]
COc1ccc2cc(C(C)C(=O)NC(Cc3ccc(-c4ccccc4)cc3)C(=O)NC3CC(C)(C)NC(C)(C)C3)ccc2c1 (centres unmarked) [PL-AC-202] | 5.1e+06

Same assay, conditions: human red blood cells, 37° C., 2h; first concentration with ODtest-OD negative >0.1

Compound | MHC [µg/mL]
COc1ccc2cc(C(C)C(=O)NC(Cc3ccc(-c4ccccc4)cc3)C(=O)NC3CC(C)(C)NC(C)(C)C3)ccc2c1 (centres unmarked) [PL-AC-202] | 3000

System: Liver cancer Bel-7402 cells
Experiment: In vitro antitumor activity test (MTT), Bel-7402
Format: cell-based
Conditions: Homo sapiens; Liver cancer Bel-7402, MTT, 24 h
Protocol: as §1, §2

Compound | IC50 [nM]
COc1ccc2cc(C(C)C(=O)NC(Cc3ccc(-c4ccccc4)cc3)C(=O)NC3CC(C)(C)NC(C)(C)C3)ccc2c1 (centres unmarked) [PL-AC-202] | 45.6

System: Human osteosarcoma MG63 cells
Experiment: In vitro antitumor activity test (MTT), MG63
Format: cell-based
Conditions: MG-63, 24 h
Protocol: as §1, §2

Compound | IC50 [nM]
COc1ccc2cc(C(C)C(=O)NC(Cc3ccc(-c4ccccc4)cc3)C(=O)NC3CC(C)(C)NC(C)(C)C3)ccc2c1 (centres unmarked) [PL-AC-202] | 24.1

System: Melanoma B16 cells
Experiment: In vitro antitumor activity test (MTT), B16
Format: cell-based
Conditions: 24 h
Protocol: as §1, §2

Compound | IC50 [nM]
COc1ccc2cc(C(C)C(=O)NC(Cc3ccc(-c4ccccc4)cc3)C(=O)NC3CC(C)(C)NC(C)(C)C3)ccc2c1 (centres unmarked) [PL-AC-202] | 28.4

System: Lung cancer H292 cells
Experiment: In vitro antitumor activity test (MTT), H292
Format: cell-based
Conditions: Homo sapiens, NCI-H292, 24 h
Protocol: as §1, §2

Compound | IC50 [nM]
COc1ccc2cc(C(C)C(=O)NC(Cc3ccc(-c4ccccc4)cc3)C(=O)NC3CC(C)(C)NC(C)(C)C3)ccc2c1 (centres unmarked) [PL-AC-202] | 20.1

System: Lung cancer A549 cells
Experiment: In vitro antitumor activity test (MTT), A549
Format: cell-based
Conditions: Homo sapiens, 24 h
Protocol: as §1, §2

Compound | IC50 [nM]
COc1ccc2cc(C(C)C(=O)NC(Cc3ccc(-c4ccccc4)cc3)C(=O)NC3CC(C)(C)NC(C)(C)C3)ccc2c1 (centres unmarked) [PL-AC-202] | 23.2

System: Bel-7402 liver tumors
Experiment: Transplanted tumor in nude mice, intraperitoneal, Bel-7402
Format: in vivo, BALB/c nude mice
Conditions: Bel-7402, 5 mg/kg i.p. once every 3 days, 8 administrations
Protocol: as §3

Compound | Tumor inhibition rate | Tumor weight [mg]
COc1ccc2cc(C(C)C(=O)NC(Cc3ccc(-c4ccccc4)cc3)C(=O)NC3CC(C)(C)NC(C)(C)C3)ccc2c1 (centres unmarked) [PL-AC-202] | ^ΔΔ73.1** % | 213.3 ± 9.3

Same assay, conditions: Bel-7402 tumor-bearing BALB/c mice, 5 mg/kg i.p. once every 3 days, 8 administrations

Compound | Body Weight After administration [g]
COc1ccc2cc(C(C)C(=O)NC(Cc3ccc(-c4ccccc4)cc3)C(=O)NC3CC(C)(C)NC(C)(C)C3)ccc2c1 (centres unmarked) [PL-AC-202] | 22.9 ± 1.1
